# Measurements as given in patent publication US8183388B2, “Androgen receptor modulator and uses thereof” (Eli Lilly and Company, priority 2009, dated 2012).
# Target: T1, human AR (androgen receptor) (Homo sapiens, UniProt P10275)
# T1 construct: expressed in transfected cells; host or cells: HEK293 (lysate, 293-AR)
# T1 sequence (P10275 1-920): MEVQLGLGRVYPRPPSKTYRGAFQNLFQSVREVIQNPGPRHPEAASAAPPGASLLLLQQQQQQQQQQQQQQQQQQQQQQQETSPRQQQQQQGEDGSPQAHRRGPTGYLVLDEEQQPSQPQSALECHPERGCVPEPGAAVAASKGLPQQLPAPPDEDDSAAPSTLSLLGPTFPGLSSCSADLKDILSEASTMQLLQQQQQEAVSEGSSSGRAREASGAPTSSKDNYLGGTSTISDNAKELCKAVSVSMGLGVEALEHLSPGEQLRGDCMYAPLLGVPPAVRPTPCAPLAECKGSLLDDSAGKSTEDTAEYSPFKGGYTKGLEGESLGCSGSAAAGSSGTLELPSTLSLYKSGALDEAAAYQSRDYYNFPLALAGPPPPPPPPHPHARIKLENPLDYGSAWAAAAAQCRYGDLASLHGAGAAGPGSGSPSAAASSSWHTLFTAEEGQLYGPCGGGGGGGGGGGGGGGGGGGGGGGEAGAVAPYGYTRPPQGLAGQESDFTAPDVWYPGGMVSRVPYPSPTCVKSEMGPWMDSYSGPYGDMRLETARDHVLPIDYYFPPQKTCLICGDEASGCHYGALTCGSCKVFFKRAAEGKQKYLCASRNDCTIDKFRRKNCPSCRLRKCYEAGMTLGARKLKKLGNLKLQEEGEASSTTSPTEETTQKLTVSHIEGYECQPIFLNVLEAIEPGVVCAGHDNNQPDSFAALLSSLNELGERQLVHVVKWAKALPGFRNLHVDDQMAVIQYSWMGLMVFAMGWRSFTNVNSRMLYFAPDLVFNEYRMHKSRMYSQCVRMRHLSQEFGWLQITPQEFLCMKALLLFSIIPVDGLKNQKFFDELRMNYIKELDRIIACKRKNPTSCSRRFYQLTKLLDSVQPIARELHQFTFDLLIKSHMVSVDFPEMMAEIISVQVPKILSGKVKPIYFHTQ
# Assay: Steroid hormone nuclear receptor binding assay, AR
# Conditions: HEK293 lysate overexpressing human AR, [3H]-methyltrienolone
# Method: Cell lysates from human embryonic kidney HEK293 cells overexpressing human MR (mineralocorticoid receptor), GR (glucocorticoid receptor), AR (androgen receptor), or PR (progesterone receptor) are used for receptor-ligand competition binding assays to determine Ki values. Typical procedures are provided below
# Briefly, steroid receptor competition binding assays are run in a buffer containing 20 mM HEPES buffer (pH=7.6), 0.2 mM EDTA, 75 mM NaCl, 1.5 mM MgCl2, 20% glycerol, 20 mM sodium molybdate, 0.2 mM DTT (dithiothreitol), 20 μg/mL aprotinin and 20 μg/mL leupeptin (assay buffer). […] Assays are typically run in 96-well format. Competing test compounds are added at various concentrations ranging from about 0.01 nM to 10 μM. Non-specific binding is determined in the presence of 500 nM aldosterone for MR binding, 500 nM dexamethasone for GR binding, or 500 nM methyltrienolone for AR and PR binding. The binding reactions (140 μL) are incubated overnight at 4° C., then 70 μL of cold charcoal-dextran buffer (containing per 50 mL of assay buffer, 0.75 g of charcoal and 0.25 g of dextran) is added to each reaction. […] After an incubation of 2 hours, plates are read in a Wallac Microbeta counter.
# The Kd for [^3H]-aldosterone for MR binding, [^3H]-dexamethasone for GR binding, [^3H]-methyltrienolone for AR binding, or [^3H]-methyltrienolone for PR binding, is determined by saturation binding. […]
compound,measurement,value
"CC(C)OC(=O)N[C@H]1Cc2c(n(C[C@H]3OCC[C@@H]3O)c3ccc(C#N)cc23)C1 [compound of Formula (I), [(S)-7-Cyano-4-((2R,3S)-3-hydroxytetrahydrofuran-2-ylmethyl)-1,2,3,4-tetrahydrocyclopenta[b]indol-2-yl]-carbamic acid isopropyl ester]",Ki,~10 nM
